Measurements as given in ChEMBL document CHEMBL1148656, “Synthesis, SAR exploration, and X-ray crystal structures of factor XIa inhibitors containing an alpha-ketothiazole arginine” (Bioorg Med Chem Lett, 2006).

Each compound was assayed against Coagulation factor XI (Homo sapiens, UniProt P03951).
Coagulation factor XI, sequence (P03951 19-387 limits assumed): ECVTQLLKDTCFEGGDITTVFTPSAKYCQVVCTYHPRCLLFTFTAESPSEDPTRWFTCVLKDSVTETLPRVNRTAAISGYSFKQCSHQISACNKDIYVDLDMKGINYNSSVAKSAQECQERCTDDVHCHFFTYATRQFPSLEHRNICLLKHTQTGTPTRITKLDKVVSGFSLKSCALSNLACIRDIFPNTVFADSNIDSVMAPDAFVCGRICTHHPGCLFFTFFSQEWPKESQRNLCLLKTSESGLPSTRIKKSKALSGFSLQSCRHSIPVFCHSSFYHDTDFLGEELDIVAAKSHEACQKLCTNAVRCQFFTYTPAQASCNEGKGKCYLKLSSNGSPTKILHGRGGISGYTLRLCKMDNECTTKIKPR
Coagulation factor XI, sequence (P03951 388-625 limits assumed): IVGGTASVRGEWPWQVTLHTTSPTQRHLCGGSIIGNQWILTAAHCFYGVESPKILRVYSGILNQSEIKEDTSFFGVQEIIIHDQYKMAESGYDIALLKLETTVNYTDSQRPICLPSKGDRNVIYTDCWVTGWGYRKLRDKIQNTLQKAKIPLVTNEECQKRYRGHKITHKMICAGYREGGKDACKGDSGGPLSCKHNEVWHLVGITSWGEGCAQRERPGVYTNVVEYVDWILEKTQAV

IC50 | Structure (SMILES)
0.713 µM | CC(C)[C@H](NC(=O)N[C@@H]1C[C@@H]2C[C@H]([C@H]1C)C2(C)C)C(=O)N[C@@H](CCCN=C(N)N)C(=O)c1nccs1
3.31 µM | CC(C)[C@H](NC(=O)N[C@H]1C[C@H]2C[C@@H]([C@@H]1C)C2(C)C)C(=O)N[C@@H](CCCN=C(N)N)C(=O)c1nccs1
0.956 µM | CC(C)[C@H](NC(=O)[C@H](O)c1cccc(F)c1)C(=O)N[C@@H](CCCN=C(N)N)C(=O)c1nccs1
0.48 µM | CC(C)[C@H](NC(=O)NCc1ccc(Cl)c(Cl)c1)C(=O)N[C@@H](CCCN=C(N)N)C(=O)c1nccs1
123 µM | CC(C)CC(=O)N[C@@H](CCCN=C(N)N)C(=O)c1nccs1
0.116 µM | CC(C)[C@H](NC(=O)[C@H](O)c1cccc(Cl)c1)C(=O)N[C@@H](CCCN=C(N)N)C(=O)c1nccs1

The next lines start with the compound.

Structure (SMILES) | IC50
N=C(N)NCCC[C@H](NS(=O)(=O)c1ccc2ccccc2c1)C(=O)c1nccs1 | 86 µM
CC(C)[C@H](CC(=O)NCc1ccc(Cl)c(Cl)c1)C(=O)N[C@@H](CCCN=C(N)N)C(=O)c1nccs1 | 6.22 µM
NC(N)=NCCC[C@H](NC(=O)Cc1ccc(Cl)c(Cl)c1)C(=O)c1nccs1 | 37.9 µM
N=C(N)NCCC[C@H](NS(=O)(=O)c1cccc2ccccc12)C(=O)c1nccs1 | 250 µM
N=C(N)NCCC[C@H](NC(=O)c1cc(F)cc2c1OCOC2)C(=O)c1nccs1 | 5.9 µM
NC(N)=NCCC[C@H](NC(=O)c1cccc2ccccc12)C(=O)c1nccs1 | 2.25 µM
NC(N)=NCCC[C@H](NC(=O)Cc1cccc2ccccc12)C(=O)c1nccs1 | > 250 µM
N=C(N)NCCC[C@H](NC(=O)c1ccc2ccccc2c1)C(=O)c1nccs1 | > 200 µM
